Measurements as given in patent US20220323406A1, “METHODS AND COMPOSITIONS FOR DIFFERENTIATING STEM CELLS” (Massachusetts Institute of Technology, priority 2019, published 2022).

How the values were obtained:
[1] = test system: ENR+CD organoids; assay: Primary screen: ATP (CellTiter-Glo 3D, CTG) cell number/viability, 2.5-D 384-well ENR+CD organoids; settings: primary screen; for Z.CTG: standard z score;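 on all read-outs here: compounds given at plating and again on day 3 over a 6-day differentiation from ENR+CV stem-cell-enriched precursors, ATP measured on day 6, plate median as control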
[2] = test system: ENR+CD organoids (ISC to Paneth cell differentiation); assay: Primary screen: CCh-stimulated lysozyme secretion LYZ.S, 2.5-D 384-well ENR+CD organoid differentiation; format: cell-based, mouse; settings: primary screen
Text: (§1) High-throughput screening.

[3] = test system: ENR+CD organoids (ISC to Paneth cell differentiation); assay: Primary screen: basal (non-stimulated) lysozyme secretion LYZ.NS, 2.5-D 384-well ENR+CD organoid differentiation; format: cell-based, mouse; settings: primary screen; for Z.LYZ.NS: standard z score
Text: as §1

[4] = dose 0.08 uM, FC relative to plate median
[5] = dose 0.40 uM, FC relative to plate median
[6] = dose 2.00 uM, FC relative to plate median
[7] = dose 10.00 uM, FC relative to plate median

Q: Which results are given for S3I-201?
A: Dose.FC.CTG [1, 4]: 0.321 log2 fold change; Z.CTG ([1]; dose 0.08 uM): 0.766; Dose.FC.CTG [1, 5]: 0.160 log2 fold change; Z.CTG ([1]; dose 0.40 uM): 0.382; Dose.FC.CTG [1, 6]: 0.079 log2 fold change; Z.CTG ([1]; dose 2.00 uM): 0.188; Dose.FC.CTG [1, 7]: −0.140 log2 fold change; Z.CTG ([1]; dose 10.00 uM): −0.334; Dose.FC.LYZ.S [2, 4]: 0.033 log2 fold change; Dose.FC.LYZ.S [2, 5]: 0.157 log2 fold change; Dose.FC.LYZ.S [2, 6]: −0.004 log2 fold change; Dose.FC.LYZ.S [2, 7]: −0.052 log2 fold change; Dose.FC.LYZ.NS [3, 4]: 0.051 log2 fold change; Z.LYZ.NS ([3]; dose 0.08 uM): 0.445; Dose.FC.LYZ.NS [3, 5]: 0.061 log2 fold change; Z.LYZ.NS ([3]; dose 0.40 uM): 0.527; Dose.FC.LYZ.NS [3, 6]: 0.024 log2 fold change; Z.LYZ.NS ([3]; dose 2.00 uM): 0.212; Dose.FC.LYZ.NS [3, 7]: −0.016 log2 fold change; Z.LYZ.NS ([3]; dose 10.00 uM): −0.143

Q: How did the Dose.FC.CTG [1, 4] turn out when SN-38 was run?
A: −0.720 log2 fold change

Q: What about the Z.CTG ([1]; dose 0.08 uM) of the same substance?
A: −1.720

Q: And the Dose.FC.CTG [1, 5]?
A: −1.091 log2 fold change

Q: What about the Z.CTG ([1]; dose 0.40 uM) of the same substance?
A: −2.606

Q: And the Dose.FC.CTG [1, 6]?
A: −1.226 log2 fold change

Q: And the Z.CTG ([1]; dose 2.00 uM)?
A: −2.929

Q: What about the Dose.FC.CTG [1, 7] of the same substance?
A: −1.166 log2 fold change

Q: What about the Z.CTG ([1]; dose 10.00 uM) of the same substance?
A: −2.785

Q: What about the Dose.FC.LYZ.S [2, 4] of the same substance?
A: −0.419 log2 fold change

Q: What about the Dose.FC.LYZ.S [2, 5] of the same substance?
A: −0.402 log2 fold change

Q: What about the Dose.FC.LYZ.S [2, 6] of the same substance?
A: −0.391 log2 fold change

Q: What about the Dose.FC.LYZ.S [2, 7] of the same substance?
A: −0.404 log2 fold change

Q: What about the Dose.FC.LYZ.NS [3, 4] of the same substance?
A: −0.275 log2 fold change

Q: What about the Z.LYZ.NS ([3]; dose 0.08 uM) of the same substance?
A: −2.391

Q: What about the Dose.FC.LYZ.NS [3, 5] of the same substance?
A: −0.288 log2 fold change

Q: And the Z.LYZ.NS ([3]; dose 0.40 uM)?
A: −2.505

Q: What about the Dose.FC.LYZ.NS [3, 6] of the same substance?
A: −0.305 log2 fold change

Q: What about the Z.LYZ.NS ([3]; dose 2.00 uM) of the same substance?
A: −2.655

Q: What about the Dose.FC.LYZ.NS [3, 7] of the same substance?
A: −0.299 log2 fold change

Q: And the Z.LYZ.NS ([3]; dose 10.00 uM)?
A: −2.606

Q: Which Dose.FC.CTG [1, 4] does the source give for SNS-314 Mesylate here?
A: −0.666 log2 fold change

Q: And the Z.CTG ([1]; dose 0.08 uM)?
A: −1.591

Q: And the Dose.FC.CTG [1, 5]?
A: −0.777 log2 fold change

Q: And the Z.CTG ([1]; dose 0.40 uM)?
A: −1.857

Q: And the Dose.FC.CTG [1, 6]?
A: −0.478 log2 fold change

Q: And the Z.CTG ([1]; dose 2.00 uM)?
A: −1.142

Q: And the Dose.FC.CTG [1, 7]?
A: −0.620 log2 fold change

Q: What about the Z.CTG ([1]; dose 10.00 uM) of the same substance?
A: −1.480

Q: What about the Dose.FC.LYZ.S [2, 4] of the same substance?
A: −0.115 log2 fold change

Q: And the Dose.FC.LYZ.S [2, 5]?
A: −0.103 log2 fold change

Q: And the Dose.FC.LYZ.S [2, 6]?
A: −0.133 log2 fold change

Q: What about the Dose.FC.LYZ.S [2, 7] of the same substance?
A: −0.198 log2 fold change

Q: And the Dose.FC.LYZ.NS [3, 4]?
A: −0.071 log2 fold change

Q: What about the Z.LYZ.NS ([3]; dose 0.08 uM) of the same substance?
A: −0.620

Q: What about the Dose.FC.LYZ.NS [3, 5] of the same substance?
A: −0.059 log2 fold change

Q: What about the Z.LYZ.NS ([3]; dose 0.40 uM) of the same substance?
A: −0.515

Q: What about the Dose.FC.LYZ.NS [3, 6] of the same substance?
A: −0.128 log2 fold change

Q: And the Z.LYZ.NS ([3]; dose 2.00 uM)?
A: −1.111

Q: What about the Dose.FC.LYZ.NS [3, 7] of the same substance?
A: −0.127 log2 fold change

Q: What about the Z.LYZ.NS ([3]; dose 10.00 uM) of the same substance?
A: −1.109

Q: How did the Dose.FC.CTG ([1]; dose 0.08 uM) turn out when VU 0357121 was run?
A: 0.183 log2 fold change

Q: What about the “Z.CTG (standard z score)” value ([1]; dose 0.08 uM) of the same substance?
A: 0.438

Q: And the Dose.FC.CTG ([1]; dose 0.40 uM)?
A: 0.148 log2 fold change

Q: And the “Z.CTG (standard z score)” value ([1]; dose 0.40 uM)?
A: 0.352

Q: What about the Dose.FC.CTG ([1]; dose 2.00 uM) of the same substance?
A: 0.012 log2 fold change

Q: What about the “Z.CTG (standard z score)” value ([1]; dose 2.00 uM) of the same substance?
A: 0.029

Q: And the Dose.FC.CTG ([1]; dose 10.00 uM)?
A: −0.059 log2 fold change

Q: And the “Z.CTG (standard z score)” value ([1]; dose 10.00 uM)?
A: −0.141

Q: What about the Dose.FC.LYZ.S ([2]; dose 0.08 uM) of the same substance?
A: 0.152 log2 fold change

Q: And the Dose.FC.LYZ.S ([2]; dose 0.40 uM)?
A: 0.034 log2 fold change

Q: What about the Dose.FC.LYZ.S ([2]; dose 2.00 uM) of the same substance?
A: 0.007 log2 fold change

Q: What about the Dose.FC.LYZ.S ([2]; dose 10.00 uM) of the same substance?
A: −0.034 log2 fold change

Q: And the Dose.FC.LYZ.NS ([3]; dose 0.08 uM)?
A: 0.079 log2 fold change

Q: And the “Z.LYZ.NS (standard z score)” value ([3]; dose 0.08 uM)?
A: 0.686

Q: What about the Dose.FC.LYZ.NS ([3]; dose 0.40 uM) of the same substance?
A: −0.010 log2 fold change

Q: What about the “Z.LYZ.NS (standard z score)” value ([3]; dose 0.40 uM) of the same substance?
A: −0.090

Q: What about the Dose.FC.LYZ.NS ([3]; dose 2.00 uM) of the same substance?
A: 0.030 log2 fold change

Q: What about the “Z.LYZ.NS (standard z score)” value ([3]; dose 2.00 uM) of the same substance?
A: 0.261

Q: What about the Dose.FC.LYZ.NS ([3]; dose 10.00 uM) of the same substance?
A: −0.027 log2 fold change

Q: And the “Z.LYZ.NS (standard z score)” value ([3]; dose 10.00 uM)?
A: −0.237

Q: For VU 0364439, which Dose.FC.CTG ([1]; dose 0.08 uM) is on record?
A: 0.024 log2 fold change

Q: And the “Z.CTG (standard z score)” value ([1]; dose 0.08 uM)?
A: 0.058

Q: And the Dose.FC.CTG ([1]; dose 0.40 uM)?
A: −0.121 log2 fold change

Q: And the “Z.CTG (standard z score)” value ([1]; dose 0.40 uM)?
A: −0.289

Q: And the Dose.FC.CTG ([1]; dose 2.00 uM)?
A: −0.258 log2 fold change

Q: And the “Z.CTG (standard z score)” value ([1]; dose 2.00 uM)?
A: −0.616

Q: And the Dose.FC.CTG ([1]; dose 10.00 uM)?
A: 0.009 log2 fold change

Q: What about the “Z.CTG (standard z score)” value ([1]; dose 10.00 uM) of the same substance?
A: 0.022

Q: What about the Dose.FC.LYZ.S ([2]; dose 0.08 uM) of the same substance?
A: 0.108 log2 fold change

Q: And the Dose.FC.LYZ.S ([2]; dose 0.40 uM)?
A: 0.124 log2 fold change

Q: And the Dose.FC.LYZ.S ([2]; dose 2.00 uM)?
A: −0.043 log2 fold change

Q: And the Dose.FC.LYZ.S ([2]; dose 10.00 uM)?
A: −0.038 log2 fold change

Q: What about the Dose.FC.LYZ.NS ([3]; dose 0.08 uM) of the same substance?
A: 0.082 log2 fold change

Q: And the “Z.LYZ.NS (standard z score)” value ([3]; dose 0.08 uM)?
A: 0.715

Q: What about the Dose.FC.LYZ.NS ([3]; dose 0.40 uM) of the same substance?
A: 0.011 log2 fold change

Q: What about the “Z.LYZ.NS (standard z score)” value ([3]; dose 0.40 uM) of the same substance?
A: 0.099

Q: What about the Dose.FC.LYZ.NS ([3]; dose 2.00 uM) of the same substance?
A: 0.010 log2 fold change

Q: What about the “Z.LYZ.NS (standard z score)” value ([3]; dose 2.00 uM) of the same substance?
A: 0.089

Q: What about the Dose.FC.LYZ.NS ([3]; dose 10.00 uM) of the same substance?
A: −0.055 log2 fold change

Q: What about the “Z.LYZ.NS (standard z score)” value ([3]; dose 10.00 uM) of the same substance?
A: −0.476
